The values that follow come from patent publication US20240252456A1, “ORAL COMPOSITION, SKIN COSMETIC AND HAIR COSMETIC” (MARUZEN PHARMACEUTICALS CO., LTD., priority 2021, published 2024).

One experiment has as its system SPT mRNA. Nature of the experiment: Serine palmitoyltransferase (SPT) mRNA expression promotive action test. The experiment is classed as cell-based, human. The note with it: NHEK, 24 hours, corrected with GAPDH. The protocol: Normal human neonatal epidermal keratinocytes (NHEK) were precultured using normal human epidermal keratinocyte growth medium (KGM), and the cells were collected by a trypsin treatment. The collected cells were diluted with KGM to a cell density of 15×10^4 cells/mL, then seeded with 2 mL portions in a 6-well plate (30×10^4 cells/well), and cultured overnight under conditions of 37° C. and 5% CO2. After culturing, the medium was replaced with normal human epidermal keratinocyte basal medium (KBM, the above KGM without addition of growth additives (hEGF, BPE, insulin, antibacterial agents, hydrocortisone)), and culturing was further performed for 24 hours.
After culturing for 24 hours, the medium was removed, and 2 mL of the test sample (Sample 1, see Table 16 below for final concentration) dissolved in KBM was added to each well, and culturing was performed under conditions of 37° C. and 5% CO2 for 24 hours. As a control, culturing was performed in the same manner using KBM to which no sample was added. After culturing, the medium was removed, total RNA was extracted using ISOGEN II (available from NIPPON GENE CO., LTD.), each RNA amount was measured using a spectrophotometer, and the total RNA was prepared so as to be 150 ng/μL.
For SPT and GAPDH as an internal standard, the expression levels of mRNA were measured using the above total RNA as a template. […]

For experiment [1], the system named is Normal human neonatal epidermal keratinocytes (NHEK). In words: Laminin-332 production promotive action test. The experiment is classed as cell-based. As to conditions: 25 μmol/L, 48 hours, A/B×100 vs no sample. Here is the method: Normal human neonatal epidermal keratinocytes (NHEK) were precultured in a 75 cm^2 flask using normal human epidermal keratinocyte growth medium (KGM), and the cells were collected by a trypsin treatment. The collected cells were diluted with a medium obtained by removing BPE from KGM (KGM-BPE) to a cell density of 1.0×10^5 cells/mL, then seeded with 500 μL per well in a 24-well plate, and cultured for 1 day.
After the culturing was completed, the medium was removed, and 500 μL of the test sample (Sample 1, see Table 11 below for final concentration) dissolved in KGM-BPE was added to each well, and culturing was performed for 48 hours. As a control, culturing was performed in the same manner using KGM-BPE to which no sample was added. After the culturing was completed, 100 μL of the medium supernatant was transferred to an ELISA plate and adsorbed to the plate at 37° C. for 2 hours, and then the amount of adsorbed laminin-332 was measured by ELISA method. From the obtained measurement results, the laminin-332 production promotion rate (%) was calculated using the following equation.
Laminin-332 production promotion rate (%)=A/B×100
Terms in the equation represent the following respective ones. • A: Laminin-332 amount with test sample addition • B: Laminin-332 without sample addition

In experiment [2] the test system is cyclic AMP phosphodiesterase. In words: Cyclic AMP phosphodiesterase activity inhibitory action test. The experiment is classed as biochemical. The protocol: To 0.2 mL of 50 mmol/L Tris-HCl buffer solution (pH 7.5) containing 5 mmol/L magnesium chloride, 0.1 mL of 2.5 mg/mL bovine serum albumin solution, 0.1 mL of 0.1 mg/mL cyclic AMP phosphodiesterase solution, and 0.05 mL of the test sample solution (Sample 1, see Table 2 below for final concentration) were added, and the mixture was statically placed at 37° C. for 5 minutes. Then, 0.05 mL of 0.5 mg/mL cyclic AMP solution was added, and the mixture was reacted at 37° C. for 60 minutes. After the reaction was completed, the reaction was stopped by boiling in a boiling water bath for 3 minutes, and then centrifugal separation was applied (2260×g, 10 minutes, 4° C.). Cyclic AMP, a reaction substrate in the supernatant, was analyzed under the following high-performance liquid chromatography conditions. In addition, as a control, the same operation was performed by adding only the solvent to which no sample was added.
• Product name: Chromatocorder 12 (available from SYSTEM INSTRUMENTS) • Stationary phase: Wakosil C18-ODS 5 μm (available from FUJIFILM Wako Pure Chemical Corporation) • Column length: 250 mm • Mobile phase: 1 mmol/L TBAP in 25 mmol/L KH2PO4: CH3CN=90:10 • Mobile phase flow rate: 1.0 mL/min • Detection: 260 nm
Then, a peak area (A) of a cyclic AMP standard product, a peak area (B1) of the supernatant reaction solution of the cyclic AMP standard product and the cyclic AMP phosphodiesterase when no sample was added, and a peak area (B2) of the supernatant reaction solution of the cyclic AMP standard product and the cyclic AMP phosphodiesterase when the test sample was added were obtained. From the obtained results, a decomposition rate (C) of the cyclic AMP standard product when no sample was added and a decomposition rate (D) of the cyclic AMP standard product when the test sample was added were calculated using the following equations.
After that, the cyclic AMP phosphodiesterase activity inhibition rate (%) was calculated from the following equation based on each decomposition rate (C, D) calculated from the above equations.

For `O=C(O)CCc1ccc(O)c(O)c1` [Sample 1, 3,4-Dihydroxyhydrocinnamic acid], the “SPT mRNA expression promotion rate” value was found to be 114.6% in the experiment on SPT mRNA (25 μmol/L) and 149.9% in the experiment on SPT mRNA (100 μmol/L). Also, the “Laminin-332 production promotion rate” value in experiment [1] is on record as 142. 0%. Further, the entries for the “cAMP phosphodiesterase activity inhibition rate” value in experiment [2] (500 μmol/L), in experiment [2] (1000 μmol/L) and in experiment [2] (2000 μmol/L) were 42.0%, 46.8% and 55.3%, respectively.
